Experimental data published in patent publication US20140090094A1, “MODULATORS OF SLC22A7” (BAYER INTELLECTUAL PROPERTY GmbH, priority 2011, published 2014).
Where “and” joins values, the source holds several entries; their conditions need not be identical. Equal values may be shown once.

Tests used:
Format in all cases: cell-based
OAT2r = molecular target: T1, OAT2r (Rattus norvegicus, UniProt Q5RLM2); experiment: 1 min uptake into 293 cells expressing OAT2 from rat; conditions: for clearance: 1 min uptake, 0.1 μmol/l radiotracer; for uptake after preloading with orotic acid (factor f): 1 h preincubation ±100 μmol/l unlabeled orotic acid, 3H-orotic acid 0.1 μmol/l 1 min, trigonelline 10 μmol/l 5 min;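 on all read-outs here: uptake at 37 °C, read by liquid scintillation counting or LC-ESI-MS/MS, carrier-mediated part as induced-minus-uninduced expression difference corrected for baseline content, protein by BCA assay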
T1 construct: expressed in transfected cells
T1 sequence (Q5RLM2 1-535): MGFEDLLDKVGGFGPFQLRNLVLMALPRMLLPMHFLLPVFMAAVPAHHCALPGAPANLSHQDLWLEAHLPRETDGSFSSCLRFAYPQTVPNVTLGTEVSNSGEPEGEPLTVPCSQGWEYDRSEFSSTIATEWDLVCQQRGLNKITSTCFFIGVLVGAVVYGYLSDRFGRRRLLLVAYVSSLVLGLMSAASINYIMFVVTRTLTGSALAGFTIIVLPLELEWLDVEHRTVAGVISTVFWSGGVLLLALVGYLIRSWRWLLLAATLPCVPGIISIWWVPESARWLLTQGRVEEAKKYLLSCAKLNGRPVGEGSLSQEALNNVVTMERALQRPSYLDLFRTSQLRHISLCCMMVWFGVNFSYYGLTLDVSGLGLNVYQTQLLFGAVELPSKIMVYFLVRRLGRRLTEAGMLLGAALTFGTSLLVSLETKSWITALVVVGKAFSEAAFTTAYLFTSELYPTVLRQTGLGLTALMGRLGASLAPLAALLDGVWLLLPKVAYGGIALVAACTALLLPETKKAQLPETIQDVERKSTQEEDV
Experimental: (§1) Cells were used for uptake experiments at a confluence of at least 70%. Uptake was measured at 37° C. […] After preincubation for at least 20 minutes in 4 ml of uptake buffer, the buffer was replaced with 2 ml of substrate in uptake buffer. The total substrate concentration if not indicated otherwise was 0.1 μmol/l for radiotracer assays and 10 μmol/l for unlabeled compounds. Incubation was stopped after 1 min by rinsing the cells four times each with 4 ml ice-cold uptake buffer. Radioactivity was determined, after cell lysis with 0.1% v/v Triton X-100 in 5 mmol/l TRIS-HCl pH 7.4, by liquid scintillation counting. For LCelectrospray ionization-MS/MS analysis, cells were lysed with methanol and stored at −20° C.
(§2) After centrifugation (1 min, 16000×g, 20° C.) of thawed lysates, 100 μl of the supernatant was mixed with either 10 μl unlabeled MPP+ iodide (0.5 ng/μl) or biphenyl-4-carboxylic acid (Sigma-Aldrich) as internal standard. […] Atmospheric pressure ionization with positive or negative electrospray was used. For quantification (scan time 150 ms), the optimal collision energy for argon-induced fragmentation in the second quadrupole was determined for each analyte. […] Linear calibration curves were constructed from at least six standards which were prepared using control cell lysates as solvent. Sample analyte content was calculated from the analyte response ratio and the slope of the calibration curve, obtained by linear regression. With LC-MS quantitation, solute content of cell lysates was determined for 4 conditions (paired dishes, incubation time 1 min): a) transporter expression on, uptake buffer; b) expression off, uptake buffer; c) expression on, substrate in uptake buffer; d) expression off, substrate in uptake buffer. Acute uptake mediated by heterologously expressed carrier was then calculated as (c−a)−(d−b). This approach takes into account endogenous solute content and non-specific uptake. Protein was measured by the BCA assay (Pierce) with bovine serum albumin as standard. The protein content of MS samples was estimated from 3 matched cell dishes.

OAT2h = molecular target: T2, OAT2h (Homo sapiens, UniProt Q9Y694); experiment: 1 min uptake into 293 cells expressing OAT2 from human; conditions: for clearance: 1 min uptake, 0.1 μmol/l radiotracer
T2 construct: expressed in transfected cells; host or cells: 293 cells (HEK-293), pEBTetD/OAT2h, doxycycline-inducible
T2 sequence (Q9Y694 1-546 isoform Q9Y694-2): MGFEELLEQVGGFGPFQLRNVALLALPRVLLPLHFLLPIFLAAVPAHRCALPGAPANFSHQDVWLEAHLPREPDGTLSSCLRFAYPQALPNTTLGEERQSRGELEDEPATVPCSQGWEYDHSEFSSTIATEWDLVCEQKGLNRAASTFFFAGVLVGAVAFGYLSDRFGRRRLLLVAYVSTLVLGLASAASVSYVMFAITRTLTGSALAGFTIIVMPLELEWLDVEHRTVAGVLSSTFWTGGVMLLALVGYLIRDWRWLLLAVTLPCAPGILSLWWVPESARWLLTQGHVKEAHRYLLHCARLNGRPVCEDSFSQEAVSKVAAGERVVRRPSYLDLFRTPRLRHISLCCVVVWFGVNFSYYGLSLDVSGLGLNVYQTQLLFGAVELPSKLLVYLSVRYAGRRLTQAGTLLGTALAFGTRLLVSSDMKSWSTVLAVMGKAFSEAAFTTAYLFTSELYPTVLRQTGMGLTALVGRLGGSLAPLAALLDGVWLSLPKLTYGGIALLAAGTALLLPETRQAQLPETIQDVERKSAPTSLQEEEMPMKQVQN
Experimental: as §1, §2

SLC22A13h = molecular target: T3, SLC22A13h (Homo sapiens, UniProt Q9Y226); experiment: uptake/accumulation in 293 cells expressing SLC22A13h; conditions: for clearance: 1 min uptake, 0.1 μmol/l radiotracer
T3 construct: expressed in transfected cells; host or cells: 293 cells (HEK-293), pEBTetD plasmid, doxycycline-inducible
Experimental: The trigonelline content of cell lysates was determined by LC-MS/MS. […] 293 cells transfected with pEBTetD plasmids for the expression of SLC22 family carriers as indicated were grown in dishes and incubated overnight with (expression on) or without (off) doxycyclin in standard culture medium. Cells were washed with uptake buffer, incubated (1 min, 37° C.) in uptake buffer with or without 10 μmol/l unlabeled trigonelline, washed, and lysed.
For measurement of solute uptake, cells were grown in surface culture on 60 mm polystyrol dishes (Nunclon 150288, Nunc, Roskilde, Denmark) precoated with 0.1 g/l poly-L-ornithine in 0.15 M boric acid-NaOH, pH 8.4. Cells were used for uptake experiments at a confluence of at least 70%. Uptake was measured at 37° C. Uptake buffer contains 125 mmol/l NaCl, 25 mmol/l HEPES-NaOH pH 7.4, 5.6 mmol/l (+)glucose, 4.8 mmol/l KCl, 1.2 mmol/l KH2PO4, 1.2 mmol/l CaCl2, and 1.2 mmol/l MgSO4. In glutamate efflux experiments, uptake buffer without KH2PO4 was used to avoid MS interference. After preincubation for at least 20 minutes in 4 ml of uptake buffer, the buffer was replaced with 2 ml of substrate in uptake buffer. The total substrate concentration if not indicated otherwise was 0.1 μmol/l for radiotracer assays and 10 μmol/l for unlabeled compounds. Incubation was stopped after 1 min by rinsing the cells four times each with 4 ml ice-cold uptake buffer. Radioactivity was determined, after cell lysis with 0.1% v/v Triton X-100 in 5 mmol/l TRIS-HCl pH 7.4, by liquid scintillation counting. For LCelectrospray ionization-MS/MS analysis, cells were lysed with methanol and stored at −20° C.
After centrifugation (1 min, 16000×g, 20° C.) of thawed lysates, 100 μl of the supernatant was mixed with either 10 μl unlabeled MPP+ iodide (0.5 ng/μl) or biphenyl-4-carboxylic acid (Sigma-Aldrich) as internal standard. Of this mixture, […] were analyzed by LCMS/MS on a triple quadrupole mass spectrometer (4000 Q TRAP, Applied Biosystems, Darmstadt, Germany). […] For quantification (scan time 150 ms), the optimal collision energy for argon-induced fragmentation in the second quadrupole was determined for each analyte. […] Sample analyte content was calculated from the analyte response ratio and the slope of the calibration curve, obtained by linear regression. With LC-MS quantitation, solute content of cell lysates was determined for 4 conditions (paired dishes, incubation time 1 min): a) transporter expression on, uptake buffer; b) expression off, uptake buffer; c) expression on, substrate in uptake buffer; d) expression off, substrate in uptake buffer. Acute uptake mediated by heterologously expressed carrier was then calculated as (c−a)−(d−b). […] Protein was measured by the BCA assay (Pierce) with bovine serum albumin as standard. […]

[1] = initial rate 1 min, 37° C., 10 μmol/l, LC-MS/MS, uptake buffer in the expression period

T3 sequence (Q9Y226 whole entry): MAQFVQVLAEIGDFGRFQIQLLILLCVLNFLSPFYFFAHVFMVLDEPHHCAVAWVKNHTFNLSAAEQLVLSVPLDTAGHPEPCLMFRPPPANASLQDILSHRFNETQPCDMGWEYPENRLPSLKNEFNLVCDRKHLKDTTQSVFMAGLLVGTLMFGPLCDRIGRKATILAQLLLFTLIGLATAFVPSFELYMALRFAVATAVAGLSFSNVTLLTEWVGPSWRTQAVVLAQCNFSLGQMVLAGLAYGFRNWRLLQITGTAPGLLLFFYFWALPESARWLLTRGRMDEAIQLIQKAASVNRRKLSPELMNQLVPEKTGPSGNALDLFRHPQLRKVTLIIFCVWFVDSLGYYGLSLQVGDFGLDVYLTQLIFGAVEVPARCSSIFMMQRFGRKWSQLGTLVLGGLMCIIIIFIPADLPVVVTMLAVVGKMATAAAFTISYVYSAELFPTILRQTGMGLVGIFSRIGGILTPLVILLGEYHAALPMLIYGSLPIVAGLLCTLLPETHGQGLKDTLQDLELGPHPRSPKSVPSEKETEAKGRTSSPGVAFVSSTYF

Row | uptake after preloading with orotic acid (factor f) (OAT2r) | factor of uptake reduction on average (OAT2r; sodium chloride replaced by choline, lithium or potassium chloride, or magnesium and calcium omitted) | carrier-mediated clearance (OAT2r; [1]) | carrier-mediated clearance (OAT2h; [1]) | accumulation of trigonelline upon carrier expression (in words) (SLC22A13h; expression of SLC22A13 in 293 cells, FIG. 14) | Compound | clearance (OAT2r; sodium-free buffer) | clearance (OAT2r; standard uptake buffer) | clearance (OAT2h; sodium-free buffer) | Vmax (OAT2h; saturation of OAT2h-mediated specific uptake, 1 min, sodium-free buffer) | Km (OAT2h; saturation of uptake, sodium-free buffer, measured as uptake) | transport of glutamate (in words) (SLC22A13h) | clearance (SLC22A13h) | clearance (OAT2h; uptake buffer)
1 |  |  |  |  |  | N[C@@H](CCC(=O)O)C(=O)O [glutamate] | 24±1 μl min-1 mg protein-1 | 35±3 μl min-1 mg protein-1 | 70±5 μl min-1 mg protein-1 | 36±4 nmol min-1 mg protein-1 | 1.1 mM | do not transport | 0.3±0.6 μl min-1 mg protein-1 | 
2 | 0.7 | 0.75 |  |  |  | O=C(O)c1cc(=O)[nH]c(=O)[nH]1 [orotic acid] |  | 106±4 μl min-1 mg protein-1 and 106 μl min-1 mg protein-1 |  |  |  |  | 3.8±0.3 μl min-1 mg protein-1 | 46±1 μl min-1 mg protein-1 and 46 μl min-1 mg protein-1
3 | 0.7 |  | 4.8±0.5 μl min-1 mg protein-1 | 121±5 μl min-1 mg protein-1 | without effect | C[n+]1cccc(C(=O)[O-])c1 [trigonelline] |  |  |  |  |  |  |  | 
